Biological target: T1, NAD(+) hydrolase SARM1 (Homo sapiens, UniProt Q6SZW1)
T1 sequence (Q6SZW1 whole entry): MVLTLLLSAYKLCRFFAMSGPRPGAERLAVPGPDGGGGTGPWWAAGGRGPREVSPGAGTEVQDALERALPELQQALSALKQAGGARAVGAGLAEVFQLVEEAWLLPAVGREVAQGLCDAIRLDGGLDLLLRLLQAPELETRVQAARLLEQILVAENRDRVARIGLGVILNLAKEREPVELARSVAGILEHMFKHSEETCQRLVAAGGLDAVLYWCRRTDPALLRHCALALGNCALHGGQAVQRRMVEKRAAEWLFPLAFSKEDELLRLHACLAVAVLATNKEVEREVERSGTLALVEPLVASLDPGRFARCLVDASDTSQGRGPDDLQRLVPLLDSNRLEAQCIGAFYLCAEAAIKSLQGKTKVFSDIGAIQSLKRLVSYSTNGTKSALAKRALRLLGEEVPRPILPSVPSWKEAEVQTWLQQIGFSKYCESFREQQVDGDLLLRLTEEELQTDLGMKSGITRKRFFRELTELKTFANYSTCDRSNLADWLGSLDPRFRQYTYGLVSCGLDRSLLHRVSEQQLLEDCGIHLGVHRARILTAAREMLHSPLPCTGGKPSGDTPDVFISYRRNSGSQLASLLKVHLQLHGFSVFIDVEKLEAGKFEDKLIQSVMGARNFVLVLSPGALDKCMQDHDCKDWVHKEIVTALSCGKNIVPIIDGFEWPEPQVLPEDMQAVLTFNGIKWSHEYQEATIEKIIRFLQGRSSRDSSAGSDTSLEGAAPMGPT
Experiment: ARM-SAM-TIR IC50 Assay
Description: The enzymatic assay was performed in a 384-well polypropylene plate in Dulbecco's PBS buffer in a final assay volume of 20 μL. ARM-SAM-TIR lysate with a final concentration of 5 μg/mL was pre-incubated with the respective compound at 1% DMSO final assay concentration over 2 h at room temperature. The reaction was initiated by addition of 5 μM final assay concentration of NAD+ as substrate. After a 2 hr room temperature incubation, the reaction was terminated with 40 μL of stop solution of 7.5% trichloroactetic acid in acetonitrile. The NAD+ and ADPR concentrations were analyzed by a RapidFire High Throughput Mass Spectrometry System (Agilent Technologies, Santa Clara, Calif.) using an API4000 triple quadrupole mass spectrometer (AB Sciex Framingham, Mass.).

`Cc1c(-c2ccncc2)n[nH]c1NC(=O)COc1ccc(Cl)c(F)c1` [US12331033, Example 291] showed an IC50 of under 5 µM.

— BindingDB's records for patent US12331033 (Disarm Therapeutics, 2025)
